These results are taken from patent US20230265151A1, “GIP/GLP1 CO-AGONIST COMPOUNDS” (priority 2020, published 2023).

Read-outs that look alike come from different tables or passages of the source.

One assay concerns the target T1, hGIPR (Homo sapiens, UniProt P48546).
T1 construct: expressed in transfected cells
T1 sequence (P48546 22-466): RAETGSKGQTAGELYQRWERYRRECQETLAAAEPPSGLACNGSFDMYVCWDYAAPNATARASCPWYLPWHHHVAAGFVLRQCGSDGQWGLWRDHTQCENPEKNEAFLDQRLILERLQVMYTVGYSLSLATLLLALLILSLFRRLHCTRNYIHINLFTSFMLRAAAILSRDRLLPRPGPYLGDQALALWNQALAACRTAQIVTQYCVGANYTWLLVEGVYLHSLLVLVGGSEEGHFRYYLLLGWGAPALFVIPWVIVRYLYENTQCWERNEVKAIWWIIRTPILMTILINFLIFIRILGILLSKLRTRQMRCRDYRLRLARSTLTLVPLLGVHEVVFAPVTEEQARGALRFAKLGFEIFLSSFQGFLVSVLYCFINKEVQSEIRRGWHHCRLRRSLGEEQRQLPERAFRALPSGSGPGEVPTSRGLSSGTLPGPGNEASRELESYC
Nature of the assay: Functional cAMP formation (HTRF) in HEK-293 clonal cells expressing hGIPR, 0.1% bovine casein, without or with 1.0% human serum albumin. In kind it is cell-based. The method, boiled down:
(§1)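 Cells were stimulated with peptide for 30 min at 37° C, then lysed in buffer carrying cAMP-d2 and anti-cAMP Eu3+-cryptate for a competitive HTRF read after at least 60 min at room temperature. The 665/620 nm ratio was converted to nM cAMP against a standard curve.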
(In general: Changes in cAMP serve as a functional read-out for many G protein-coupled receptors.)

In assay [1] the target is T2, human GIP receptor (hGIPR) (Homo sapiens, UniProt P48546).
T2 construct: expressed in transfected cells; crude membranes
T2 sequence (P48546 22-466): T1 sequence (P48546 22-466)
Nature of the assay: [125I]-GIP binding, SPA with membranes of CHO cells expressing hGIPR.

Another assay deals with hGLP-1R (Homo sapiens, UniProt P43220). Nature of the assay: Functional cAMP formation (HTRF) in HEK-293 clonal cells expressing hGLP-1R, 0.1% bovine casein, without or with 1.0% human serum albumin. Format: cell-based. Conditions: for EC50: geometric mean. Set-up: expressed in transfected cells. In short, it runs like this:
as §1

Assay [2] deals with T3, human GLP-1 receptor (hGLP-1R) (Homo sapiens, UniProt P43220).
T3 construct: expressed in transfected cells; crude membranes
T3 sequence (P43220 24-463): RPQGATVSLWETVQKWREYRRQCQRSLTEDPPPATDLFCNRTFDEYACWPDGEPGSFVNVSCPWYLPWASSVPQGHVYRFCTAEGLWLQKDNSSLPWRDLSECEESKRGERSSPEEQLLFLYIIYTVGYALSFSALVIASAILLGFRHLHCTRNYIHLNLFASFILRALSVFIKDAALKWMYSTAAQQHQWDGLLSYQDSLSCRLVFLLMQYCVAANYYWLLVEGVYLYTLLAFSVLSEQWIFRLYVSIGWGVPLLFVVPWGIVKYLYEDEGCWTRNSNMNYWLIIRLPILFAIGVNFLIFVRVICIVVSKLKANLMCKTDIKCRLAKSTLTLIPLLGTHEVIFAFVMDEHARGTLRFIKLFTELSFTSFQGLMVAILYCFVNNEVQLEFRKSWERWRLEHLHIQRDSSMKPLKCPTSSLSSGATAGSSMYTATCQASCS
As to the kind of experiment: [125I]-GLP-1 binding, SPA with membranes of HEK293 cells expressing hGLP-1R.

In the next assay the target is T4, hGCGR (Homo sapiens, UniProt P47871).
T4 construct: expressed in transfected cells
T4 sequence (P47871 26-477): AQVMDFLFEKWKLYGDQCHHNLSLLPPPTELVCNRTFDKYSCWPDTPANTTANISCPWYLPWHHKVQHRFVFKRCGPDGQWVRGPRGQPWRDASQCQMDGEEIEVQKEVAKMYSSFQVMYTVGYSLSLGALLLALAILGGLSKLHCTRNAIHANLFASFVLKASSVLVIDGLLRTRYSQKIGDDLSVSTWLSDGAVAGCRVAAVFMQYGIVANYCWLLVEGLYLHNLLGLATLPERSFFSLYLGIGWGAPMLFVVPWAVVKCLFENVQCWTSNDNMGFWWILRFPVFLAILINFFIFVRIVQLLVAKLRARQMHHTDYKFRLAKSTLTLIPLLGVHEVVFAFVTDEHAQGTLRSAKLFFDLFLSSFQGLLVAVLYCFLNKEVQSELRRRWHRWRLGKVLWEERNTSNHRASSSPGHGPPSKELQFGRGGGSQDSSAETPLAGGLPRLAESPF
Nature of the assay: Functional cAMP formation (HTRF) in HEK-293 clonal cells expressing hGCGR, 0.1% bovine casein, without or with 1.0% human serum albumin. Format: cell-based. In short, it runs like this:
as §1

The mark [3] stands for this setting: 0.1% bovine casein and 1.0% human serum albumin, 37° C., geometric mean, read-out: hGIPR EC50, nM (SEM, n).
The mark [4] stands for this setting: HEK293, 0.1% bovine casein and 1.0% human serum albumin, 37° C., percent of maximal response to GIP(1-42)NH2, read-out: hGIPR Emax, % ± SEM.
Where [5] appears, read: human GIPR, geometric mean (SEM, n), read-out: Binding Affinity Ki, nM (SEM, n) hGIPR.
Setting [6] is: 0.1% bovine casein and 1.0% human serum albumin, 37° C., read-out: hGLP-1R EC50, nM (SEM, n).
[7] abbreviates: human GLP-1R, geometric mean (SEM, n), read-out: Binding Affinity Ki, nM (SEM, n) hGLP-1R.
Where [8] appears, read: 0.1% bovine casein and 1.0% human serum albumin, 37° C., geometric mean, read-out: hGCGR EC50, nM (SEM, n).
Setting [9] is: cAMP, incubated at 37° C., 0.1% bovine casein (no human serum albumin), geometric mean, read-out: hGCGR EC50, nM (SEM, n).

In general, EC50 refers to the midpoint of the concentration-response curve. As a reminder, the Emax is the greatest response seen or fitted, relative to the assay's reference. The Ki is the dissociation constant of the complex between target and ligand, obtained from inhibition or displacement.

Chain of hGLP-1R (P43220 24-463): as the sequence (P43220 24-463) above

In the case of `CCCCCCCCCCCC(=O)N[C@@H](CCC(=O)NCCOCCOCC(=O)NCCOCCOCC(=O)NCCCC[C@H](NC(=O)CNC(=O)CNC(=O)[C@H](CCC(=O)O)NC(=O)[C@@H](NC(=O)[C@H](CC(C)C)NC(=O)[C@](C)(Cc1ccc(O)cc1)NC(=O)[C@@H](CCC(=O)O)NC(=O)[C@@H](NC(=O)[C@H](Cc1ccccc1)NC(=O)[C@H](CCC(=O)O)NC(=O)C(C)(C)NC(=O)[C@H](CCC(N)=O)NC(=O)[C@H](C)NC(=O)[C@H](CCCCNC(=O)COCCOCCNC(=O)COCCOCCNC(=O)CC[C@H](NC(=O)CCCCCCCCCCC)C(=O)O)NC(=O)[C@H](CCCN)NC(=O)[C@H](CC(=O)O)NC(=O)[C@H](CC(C)C)NC(=O)[C@](C)(CC(C)C)NC(=O)[C@@H](NC(=O)[C@H](CO)NC(=O)[C@H](Cc1ccncc1)NC(=O)[C@H](CC(=O)O)NC(=O)[C@H](CO)NC(=O)[C@@H](NC(=O)[C@](C)(Cc1ccccc1F)NC(=O)[C@@H](NC(=O)CNC(=O)[C@H](CCC(=O)O)NC(=O)C(C)(C)NC(=O)[C@@H](N)Cc1ccc(O)cc1)[C@@H](C)O)[C@@H](C)O)[C@@H](C)CC)[C@@H](C)CC)[C@@H](C)CC)C(=O)N[C@@H](CO)C(=O)N[C@@H](CO)C(=O)NCC(=O)N[C@@H](C)C(=O)N1CCC[C@H]1C(=O)N1CCC[C@H]1C(=O)N1CCC[C@H]1C(=O)N[C@@H](CO)C(N)=O)C(=O)O` [Example 5], the 50% effective concentration (EC50) at hGIPR (setting [3]) is 0.372 nM; at hGLP-1R (setting [6]), 4.78 nM; on hGLP-1R (cAMP, incubated at 37° C., 0.1% bovine casein (no human serum albumin), read-out: hGLP-1R EC50, nM (SEM, n)), 0.057 nM; at hGCGR (setting [8]), more than 9950 nM; on hGCGR (setting [9]), more than 9150 nM. The Emax at hGIPR (setting [4]) came to 91.2 ± 3.65%. For the same compound, the Ki turned out to be 0.0309 nM in assay [1] (setting [5]) and 0.154 nM in assay [2] (setting [7]).
Consider `CC[C@H](C)[C@H](NC(=O)[C@H](CC(C)C)NC(=O)[C@](C)(Cc1ccc(O)cc1)NC(=O)[C@H](CCCCNC(=O)COCCOCCNC(=O)CC[C@H](NC(=O)CCCCCCCCCOc1ccc(C(=O)O)cc1)C(=O)O)NC(=O)[C@@H](NC(=O)[C@H](Cc1ccccc1)NC(=O)[C@H](CCCN)NC(=O)C(C)(C)NC(=O)[C@H](CCC(N)=O)NC(=O)[C@H](C)NC(=O)[C@H](CCC(N)=O)NC(=O)[C@H](CCCN)NC(=O)[C@H](CC(=O)O)NC(=O)[C@H](CC(C)C)NC(=O)[C@](C)(CC(C)C)NC(=O)[C@@H](NC(=O)C(C)(C)NC(=O)[C@H](Cc1ccncc1)NC(=O)[C@H](CC(=O)O)NC(=O)[C@H](CO)NC(=O)[C@@H](NC(=O)[C@](C)(Cc1ccccc1F)NC(=O)[C@@H](NC(=O)CNC(=O)[C@H](CCC(=O)O)NC(=O)C(C)(C)NC(=O)[C@@H](N)Cc1ccc(O)cc1)[C@@H](C)O)[C@@H](C)O)[C@@H](C)CC)[C@@H](C)CC)C(=O)N[C@@H](CCCCNC(=O)COCCOCCNC(=O)CC[C@H](NC(=O)CCCCCCCCCOc1ccc(C(=O)O)cc1)C(=O)O)C(=O)NCC(=O)NCC(=O)N1CCC[C@H]1C(=O)N[C@@H](CO)C(=O)N[C@@H](CO)C(=O)NCC(=O)N[C@@H](C)C(=O)N1CCC[C@H]1C(=O)N1CCC[C@H]1C(=O)N1CCC[C@H]1C(=O)N[C@@H](CO)C(N)=O` [Example 463], for which the Emax on hGIPR (HEK293, read-out: hGIPR Emax, % ± SEM, cAMP, 37° C., 0.1% bovine casein, percent of maximal response to GIP(1-42)NH2, arithmetic mean) was 91.4%; at hGLP-1R (HEK293, read-out: hGLP-1R Emax, % ± SEM, cAMP, 37° C., 0.1% bovine casein, percent of maximal response to GLP-1(7-36)NH2, arithmetic mean), 111%. Besides, the 50% effective concentration (EC50) on hGIPR (hGIPR EC50, nM (SEM, n), cAMP, 37° C., 0.1% bovine casein (no human serum albumin), geometric mean) is 0.0124 nM; on hGIPR (hGIPR EC50, nM (SEM, n), cAMP, 37° C., 0.1% bovine casein and 1.0% human serum albumin, geometric mean (SEM, n)), 0.35 nM; at hGLP-1R (hGLP-1R EC50, nM (SEM, n), cAMP, 37° C., 0.1% bovine casein (no human serum albumin)) it was 0.267 nM; on hGCGR (hGCGR EC50, nM (SEM, n), cAMP, 37° C., 0.1% bovine casein (no human serum albumin), geometric mean), more than 9950 nM; on hGCGR (hGCGR EC50, nM (SEM, n), cAMP, 37° C., 0.1% bovine casein and 1.0% human serum albumin, geometric mean (SEM, n)) it was more than 9950 nM. The inhibition constant (Ki) in assay [1] stood at 0.0183 nM; in assay [2], 0.143 nM.
On to `CCCCCCCCCCCCCCCC(=O)N[C@@H](CCC(=O)NCCOCCOCC(=O)NCCOCCOCC(=O)NCCCC[C@H](NC(=O)[C@H](CCCN)NC(=O)[C@H](CC(=O)O)NC(=O)[C@H](CC(C)C)NC(=O)[C@](C)(CC(C)C)NC(=O)[C@@H](NC(=O)[C@H](CO)NC(=O)[C@H](Cc1ccncc1)NC(=O)[C@H](CC(=O)O)NC(=O)[C@H](CO)NC(=O)[C@@H](NC(=O)[C@](C)(Cc1ccccc1F)NC(=O)[C@@H](NC(=O)CNC(=O)[C@H](CCC(=O)O)NC(=O)C(C)(C)NC(=O)[C@@H](N)Cc1ccc(O)cc1)[C@@H](C)O)[C@@H](C)O)[C@@H](C)CC)C(=O)N[C@@H](C)C(=O)N[C@@H](CCC(N)=O)C(=O)NC(C)(C)C(=O)N[C@@H](CCC(=O)O)C(=O)N[C@@H](Cc1ccccc1)C(=O)N[C@H](C(=O)N[C@H](CCC(=O)O)C(=O)N[C@@](C)(Cc1ccc(O)cc1)C(=O)N[C@@H](CC(C)C)C(=O)N[C@H](C(=O)N[C@@H](CCCCNC(=O)COCCOCCNC(=O)COCCOCCNC(=O)CC[C@H](NC(=O)CCCCCCCCCCCCCCC)C(=O)O)C(=O)NCC(=O)NCC(=O)N1CCC[C@H]1C(=O)N[C@@H](CO)C(=O)N[C@@H](CO)C(=O)NCC(=O)N[C@@H](C)C(=O)N1CCC[C@H]1C(=O)N1CCC[C@H]1C(=O)N1CCC[C@H]1C(=O)N[C@@H](CO)C(N)=O)[C@@H](C)CC)[C@@H](C)CC)C(=O)O` [Example 23], for which the EC50 was 0.623 nM on hGIPR (setting [3]), 1.98 nM at hGLP-1R (setting [6]), more than 9950 nM at hGCGR (setting [8]) and more than 9950 nM on hGCGR (setting [9]). Also, at hGIPR (setting [4]), the maximal effect (Emax) was 95.3 ± 0.863%. Besides, the Ki in assay [1] (setting [5]) was determined as 0.0238 nM; in assay [2] (setting [7]) it was 0.251 nM.
Regarding `CC[C@H](C)[C@H](NC(=O)[C@H](CC(C)C)NC(=O)[C@](C)(Cc1ccc(O)cc1)NC(=O)[C@@H](CCC(=O)O)NC(=O)[C@@H](NC(=O)[C@H](Cc1ccccc1)NC(=O)[C@H](CCC(=O)O)NC(=O)C(C)(C)NC(=O)[C@H](CCC(N)=O)NC(=O)[C@H](C)NC(=O)[C@H](CCCCNC(=O)COCCOCCNC(=O)COCCOCCNC(=O)CC[C@H](NC(=O)CCCCCCCCCCCCC(=O)O)C(=O)O)NC(=O)[C@H](CCCN)NC(=O)[C@H](CC(=O)O)NC(=O)[C@H](CC(C)C)NC(=O)[C@](C)(CC(C)C)NC(=O)[C@@H](NC(=O)C(C)(C)NC(=O)[C@H](Cc1ccc(O)cc1)NC(=O)[C@H](CC(=O)O)NC(=O)[C@H](CO)NC(=O)[C@@H](NC(=O)[C@](C)(Cc1ccccc1F)NC(=O)[C@@H](NC(=O)CNC(=O)[C@H](CCC(=O)O)NC(=O)C(C)(C)NC(=O)[C@@H](N)Cc1ccc(O)cc1)[C@@H](C)O)[C@@H](C)O)[C@@H](C)CC)[C@@H](C)CC)C(=O)N[C@@H](CCC(=O)O)C(=O)NCC(=O)NCC(=O)N[C@@H](CCCCNC(=O)COCCOCCNC(=O)COCCOCCNC(=O)CC[C@H](NC(=O)CCCCCCCCCCCCC(=O)O)C(=O)O)C(=O)N[C@@H](CO)C(=O)N[C@@H](CO)C(=O)NCC(=O)N[C@@H](C)C(=O)N1CCC[C@H]1C(=O)N1CCC[C@H]1C(=O)N1CCC[C@H]1C(=O)N[C@@H](CO)C(N)=O` [Example 50], the concentration giving a half-maximal response (EC50) on hGIPR (setting [3]) was 1.81 nM; on hGIPR (cAMP, incubated at 37° C., 0.1% bovine casein (no human serum albumin), geometric mean, read-out: hGIPR EC50, nM (SEM, n)), 0.0168 nM; on hGCGR (setting [8]) it was more than 9950 nM; at hGCGR (setting [9]), more than 9950 nM. The Emax was determined as 91.4 ± 4.2% at hGIPR (setting [4]) and 94.7 ± 1.77% at hGIPR (HEK293, percent of maximal response to GIP(1-42)NH2, 37° C., 0.1% bovine casein, arithmetic mean, read-out: hGIPR Emax, % ± SEM). In addition, the Ki was 0.0296 nM in assay [1] (setting [5]) and 0.876 nM in assay [2] (setting [7]).
